Data: patent US11919901B2 (Syndax Pharmaceuticals, Inc., priority 2021, dated 2024)

Tested on: MV4-11 cells
Assay: Cell proliferation assay MV4;11 (CellTiter-Glo, 72 hours)
Format: cell-based
Conditions: Homo sapiens; MV4;11 leukemia cell line, 72 hours; read-out: MV4; 11 IC50
Method in brief: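 MV4-11 cells (MLL1-AF4 fusion) exposed 72 h at 37 °C to 8 compound concentrations, final 0.632–2000 nM. Viability by CellTiter-Glo luminescence as % of vehicle RLU; % max inhibition = 100 − viability at top concentration.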

SMILES | IC50 [nM]
CCN(C(=O)c1cc(F)ccc1Oc1cncnc1N1CC2(CCN(C[C@@H]3CC[C@@H](NS(=O)(=O)c4ccc(Cl)cc4)CO3)CC2)C1)C(C)C [Example 61, 2-((4-(7-(((2S,5R)-5-((4-Chlorophenyl)sulfonamido)tetrahydro-2H-pyran-2-yl)methyl)-2,7-diazaspiro[3.5]nonan-2-yl)pyrimidin-5-yl)oxy)-N-ethyl-5-fluoro-N-isopropylbenzamide] | < 100
CCN(C(=O)c1cc(F)ccc1Oc1cncnc1N1CC2(CCN(C[C@@H]3CC[C@@H](NS(=O)(=O)c4ccc(OC)cc4)CO3)CC2)C1)C(C)C [Example 62, N-Ethyl-5-fluoro-N-isopropyl-2-((4-(7-(((2S,5R)-5-((4-methoxyphenyl)sulfonamido)tetrahydro-2H-pyran-2-yl)methyl)-2,7-diazaspiro[3.5]nonan-2-yl)pyrimidin-5-yl)oxy)benzamide] | < 100
CCN(C(=O)c1cc(F)ccc1Oc1cncnc1N1CC2(CCN(C[C@@H]3CC[C@@H](NS(=O)(=O)c4cccnc4)CO3)CC2)C1)C(C)C [Example 63, N-Ethyl-5-fluoro-N-isopropyl-2-((4-(7-(((2S,5R)-5-(pyridine-3-sulfonamido)tetrahydro-2H-pyran-2-yl)methyl)-2,7-diazaspiro[3.5]nonan-2-yl)pyrimidin-5-yl)oxy)benzamide] | < 100
CCN(C(=O)c1cc(F)ccc1Oc1cncnc1N1CC2(CCN(C[C@@H]3CC[C@@H](NS(=O)(=O)N4CCOCC4)CO3)CC2)C1)C(C)C [Example 64, N-Ethyl-5-fluoro-N-isopropyl-2-((4-(7-(((2S,5R)-5-(morpholine-4-sulfonamido)tetrahydro-2H-pyran-2-yl)methyl)-2,7-diazaspiro[3.5]nonan-2-yl)pyrimidin-5-yl)oxy)benzamide] | < 100
CCN(C(=O)c1cc(F)ccc1Oc1cncnc1N1CC2(CCN(C[C@@H]3CC[C@@H](NS(=O)(=O)c4ccccc4OC)CO3)CC2)C1)C(C)C [Example 65, N-Ethyl-5-fluoro-N-isopropyl-2-((4-(7-(((2S,5R)-5-((2-methoxyphenyl)sulfonamido)tetrahydro-2H-pyran-2-yl)methyl)-2,7-diazaspiro[3.5]nonan-2-yl)pyrimidin-5-yl)oxy)benzamide] | < 100
CCN(C(=O)c1cc(F)ccc1Oc1cncnc1N1CC2(CCN(C[C@@H]3CC[C@@H](NS(=O)(=O)c4cccc(OC)c4)CO3)CC2)C1)C(C)C [Example 66, N-Ethyl-5-fluoro-N-isopropyl-2-((4-(7-(((2S,5R)-5-((3-methoxyphenyl)sulfonamido)tetrahydro-2H-pyran-2-yl)methyl)-2,7-diazaspiro[3.5]nonan-2-yl)pyrimidin-5-yl)oxy)benzamide] | < 100
CCN(C(=O)c1cc(F)ccc1Oc1cncnc1N1CC2(CCN(C[C@@H]3CC[C@@H](NS(=O)(=O)N4CCC4)CO3)CC2)C1)C(C)C [Example 69, 2-((4-(7-(((2S,5R)-5-(Azetidine-1-sulfonamido)tetrahydro-2H-pyran-2-yl)methyl)-2,7-diazaspiro[3.5]nonan-2-yl)pyrimidin-5-yl)oxy)-N-ethyl-5-fluoro-N-isopropylbenzamide] | < 100
CCN(C(=O)c1cc(F)ccc1Oc1cncnc1N1CC2(CCN(C[C@@H]3CC[C@@H](NS(N)(=O)=O)CO3)CC2)C1)C(C)C [Example 73, N-Ethyl-5-fluoro-N-isopropyl-2-((4-(7-(((2S,5R)-5-(sulfamoylamino)tetrahydro-2H-pyran-2-yl)methyl)-2,7-diazaspiro[3.5]nonan-2-yl)pyrimidin-5-yl)oxy)benzamide] | 100 to 1000
CCN(C(=O)c1cc(F)ccc1Oc1cncnc1N1CC2(CCN(C[C@@H]3CC[C@@H](NS(=O)(=O)NC)CO3)CC2)C1)C(C)C [Example 76, N-Ethyl-5-fluoro-N-isopropyl-2-((4-(7-(((2S,5R)-5-((N-methylsulfamoyl)amino)tetrahydro-2H-pyran-2-yl)methyl)-2,7-diazaspiro[3.5]nonan-2-yl)pyrimidin-5-yl)oxy)benzamide] | < 100
CC(C)N(C(=O)c1cc(F)ccc1Oc1cncnc1N1CC2(CCN(C[C@@H]3CC[C@@H](NS(=O)(=O)N(C)C)CO3)CC2)C1)C(C)C [Example 77, 2-((4-(7-(((2S,5R)-5-((N,N-Dimethylsulfamoyl)amino)tetrahydro-2H-pyran-2-yl)methyl)-2,7-diazaspiro[3.5]nonan-2-yl)pyrimidin-5-yl)oxy)-5-fluoro-N,N-diisopropylbenzamide] | < 100
CC(C)N(C(=O)c1cc(F)ccc1Oc1cncnc1N1CC2(CCN(C[C@@H]3CC[C@@H](NS(=O)(=O)N4CCOCC4)CO3)CC2)C1)C(C)C [Example 78, 5-Fluoro-N,N-diisopropyl-2-((4-(7-(((2S,5R)-5-(morpholine-4-sulfonamido)tetrahydro-2H-pyran-2-yl)methyl)-2,7-diazaspiro[3.5]nonan-2-yl)pyrimidin-5-yl)oxy)benzamide] | < 100
CC(C)N(C(=O)c1cc(F)ccc1Oc1cncnc1N1CC2(CCN(C[C@@H]3CC[C@@H](NS(=O)(=O)N4CCC4)CO3)CC2)C1)C(C)C [Example 88, 2-((4-(7-(((2S,5R)-5-(Azetidine-1-sulfonamido)tetrahydro-2H-pyran-2-yl)methyl)-2,7-diazaspiro[3.5]nonan-2-yl)pyrimidin-5-yl)oxy)-5-fluoro-N,N-diisopropylbenzamide] | < 100
CC(C)N(C(=O)c1cc(F)ccc1Oc1cncnc1N1CC2(CCN(C[C@@H]3CC[C@@H](NS(=O)(=O)N(C)C(C)C)CO3)CC2)C1)C(C)C [Example 89, 5-Fluoro-N,N-diisopropyl-2-((4-(7-(((2S,5R)-5-((N-isopropyl-N-methylsulfamoyl)amino)tetrahydro-2H-pyran-2-yl)methyl)-2,7-diazaspiro[3.5]nonan-2-yl)pyrimidin-5-yl)oxy)benzamide] | < 100
CC(C)N(C(=O)c1cc(F)ccc1Oc1cncnc1N1CC2(CCN(C[C@@H]3CC[C@@H](NS(N)(=O)=O)CO3)CC2)C1)C(C)C [Example 90, 5-Fluoro-N,N-diisopropyl-2-((4-(7-(((2S,5R)-5-(sulfamoylamino)tetrahydro-2H-pyran-2-yl)methyl)-2,7-diazaspiro[3.5]nonan-2-yl)pyrimidin-5-yl)oxy)benzamide] | < 100
CC(C)N(C(=O)c1cc(F)ccc1Oc1cncnc1N1CC2(CCN(C[C@@H]3CC[C@@H](NS(=O)(=O)N(C)C)CO3)CC2)C1)C1CC1 [Example 93, N-Cyclopropyl-2-((4-(7-(((2S,5R)-5-((N,N-dimethylsulfamoyl)amino)tetrahydro-2H-pyran-2-yl)methyl)-2,7-diazaspiro[3.5]nonan-2-yl)pyrimidin-5-yl)oxy)-5-fluoro-N-isopropylbenzamide] | < 100
CC(C)N(CC(F)F)C(=O)c1cc(F)ccc1Oc1cncnc1N1CC2(CCN(C[C@@H]3CC[C@@H](NS(=O)(=O)N4CCOCC4)CO3)CC2)C1 [Example 94, N-(2,2-Difluoroethyl)-5-fluoro-N-isopropyl-2-((4-(7-(((2S,5R)-5-(morpholine-4-sulfonamido)tetrahydro-2H-pyran-2-yl)methyl)-2,7-diazaspiro[3.5]nonan-2-yl)pyrimidin-5-yl)oxy)benzamide] | < 100
CC(C)N(CC(F)F)C(=O)c1cc(F)ccc1Oc1cncnc1N1CC2(CCN(C[C@@H]3CC[C@@H](NS(=O)(=O)N(C)C)CO3)CC2)C1 [Example 95, N-(2,2-Difluoroethyl)-2-((4-(7-(((2S,5R)-5-((N,N-dimethylsulfamoyl)amino)tetrahydro-2H-pyran-2-yl)methyl)-2,7-diazaspiro[3.5]nonan-2-yl)pyrimidin-5-yl)oxy)-5-fluoro-N-isopropylbenzamide] | < 100
CC(C)N(CC(F)F)C(=O)c1cc(F)ccc1Oc1cncnc1N1CC2(CCN(C[C@@H]3CC[C@@H](NS(C)(=O)=O)CO3)CC2)C1 [Example 96, N-(2,2-Difluoroethyl)-5-fluoro-N-isopropyl-2-((4-(7-(((2S,5R)-5-(methylsulfonamido)tetrahydro-2H-pyran-2-yl)methyl)-2,7-diazaspiro[3.5]nonan-2-yl)pyrimidin-5-yl)oxy)benzamide] | < 100
CCN(CC)S(=O)(=O)N[C@@H]1CC[C@@H](CN2CCC3(CC2)CN(c2ncncc2Oc2ccc(F)cc2C(=O)N(CC(F)F)C(C)C)C3)OC1 [Example 97, 2-((4-(7-(((2S,5R)-5-((N,N-Diethylsulfamoyl)amino)tetrahydro-2H-pyran-2-yl)methyl)-2,7-diazaspiro[3.5]nonan-2-yl)pyrimidin-5-yl)oxy)-N-(2,2-difluoroethyl)-5-fluoro-N-isopropylbenzamide] | < 100
CC(C)N(CC(F)F)C(=O)c1cc(F)ccc1Oc1cncnc1N1CC2(CCN(C[C@@H]3CC[C@@H](NS(=O)(=O)N4CCC4)CO3)CC2)C1 [Example 99, 2-((4-(7-(((2S,5R)-5-(Azetidine-1-sulfonamido)tetrahydro-2H-pyran-2-yl)methyl)-2,7-diazaspiro[3.5]nonan-2-yl)pyrimidin-5-yl)oxy)-N-(2,2-difluoroethyl)-5-fluoro-N-isopropylbenzamide] | < 100
CC(C)N(CC(F)F)C(=O)c1cc(F)ccc1Oc1cncnc1N1CC2(CCN(C[C@@H]3CC[C@@H](NS(=O)(=O)N(C)C(C)C)CO3)CC2)C1 [Example 101, N-(2,2-Difluoroethyl)-5-fluoro-N-isopropyl-2-((4-(7-(((2S,5R)-5-((N-isopropyl-N-methylsulfamoyl)amino)tetrahydro-2H-pyran-2-yl)methyl)-2,7-diazaspiro[3.5]nonan-2-yl)pyrimidin-5-yl)oxy)benzamide] | < 100
CNS(=O)(=O)N[C@@H]1CC[C@@H](CN2CCC3(CC2)CN(c2ncncc2Oc2ccc(F)cc2C(=O)N(CC(F)F)C(C)C)C3)OC1 [Example 102, N-(2,2-Difluoroethyl)-5-fluoro-N-isopropyl-2-((4-(7-(((2S,5R)-5-((N-methylsulfamoyl)amino)tetrahydro-2H-pyran-2-yl)methyl)-2,7-diazaspiro[3.5]nonan-2-yl)pyrimidin-5-yl)oxy)benzamide] | < 100
